Assay results reported in patent US20100113510A1 (priority 2006, published 2010).
Values joined by “and” are separate entries in the source; they are usually repeats but may differ in a detail not shown here. Equal entries are not always repeated. Where two headings read alike, the source gives them in different places.

Target: T1, human muscarinic acetylcholine M3 receptor (M3-ACh) (Homo sapiens, UniProt P20309)
T1 construct: expressed in transfected cells; host or cells: CHO-K1 (Chinese Hamster Ovary) cell membranes
T1 sequence (P20309 whole entry): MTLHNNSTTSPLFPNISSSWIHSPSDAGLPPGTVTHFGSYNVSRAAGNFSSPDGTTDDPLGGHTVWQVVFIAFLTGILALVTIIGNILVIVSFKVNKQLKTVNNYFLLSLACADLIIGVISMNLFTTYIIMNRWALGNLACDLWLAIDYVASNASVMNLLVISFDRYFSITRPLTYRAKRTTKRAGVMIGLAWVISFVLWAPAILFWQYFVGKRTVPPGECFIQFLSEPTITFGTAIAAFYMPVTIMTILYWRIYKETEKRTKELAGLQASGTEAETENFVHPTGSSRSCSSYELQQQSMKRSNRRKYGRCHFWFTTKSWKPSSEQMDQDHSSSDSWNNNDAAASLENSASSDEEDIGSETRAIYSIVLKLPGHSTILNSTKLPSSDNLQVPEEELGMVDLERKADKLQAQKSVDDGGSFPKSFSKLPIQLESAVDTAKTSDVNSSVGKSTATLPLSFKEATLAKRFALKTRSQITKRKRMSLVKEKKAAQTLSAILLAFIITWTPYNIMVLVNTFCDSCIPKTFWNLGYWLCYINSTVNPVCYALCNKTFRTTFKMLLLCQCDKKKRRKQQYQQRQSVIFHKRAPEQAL
Test: biochemical
Type: binding

[1] = pIC50 (M3 Binding IC50 classes)
[2] = read-out: pIC50 (M3 Binding IC50 classes) (converted)

Molecule `CC(C(=O)O[C@H]1C[N+]2(CCc3cccc(Cl)c3)CCC1CC2)(c1cccs1)N1CCSCC1` (single isomer, unassigned) [Example 52] has an IC50 [1] of less than 2 nM.

`C[C@@](C(=O)O[C@H]1C[N+]2(CC[C@@H](O)c3ccccc3)CCC1CC2)(c1ccccc1)N1CCCCC1` [Example 39] was tested, and the IC50 [1] was less than 2 nM.

`Cc1cnc(NC(=O)C[N+]23CCC(CC2)[C@@H](OC(=O)C(C)(c2cccs2)N2CCCCC2)C3)cn1` (single isomer, unassigned) [Example 76] showed an IC50 [1] of less than 2 nM.

Work on `CC(C(=O)O[C@H]1C[N+]2(CCc3cccc(F)c3)CCC1CC2)(c1cccs1)N1CCSCC1` (single isomer, unassigned) [Example 51] yielded an IC50 [1] of less than 2 nM.

With `CC(C(=O)O[C@H]1C[N+]2(Cc3nc(-c4ccccc4)no3)CCC1CC2)(c1cccs1)N1CCCCC1` (some centres unmarked) [Example 83] the IC50 [1] was less than 2 nM.

Molecule `C[C@@](C(=O)O[C@H]1C[N+]2(CCCS(=O)(=O)c3ccc(C#N)cc3)CCC1CC2)(c1ccccc1)N1CCCCC1` [Example 35, (3R)-1-{3-[(4-Cyanophenyl)sulfonyl]propyl}-3-{[(2S)-2-phenyl-2-piperidin-1-ylpropanoyl]oxy}-1-azoniabicyclo[2.2.2]octane bromide] has an IC50 [1] of 2 to 10 nM.

Molecule `CC(C(=O)O[C@H]1C[N+]2(CCc3cccc(Cl)c3)CCC1CC2)(c1ccccc1)N1CCCCCC1` (single isomer, unassigned) [Example 86] has an IC50 [1] of less than 2 nM.

`CC(C(=O)O[C@H]1C[N+]2(CC(=O)Nc3cccnn3)CCC1CC2)(c1ccccc1)N1CCSCC1` (single isomer, unassigned) [Example 101] was tested, and the IC50 [1] was less than 2 nM.

With `CC(C(=O)O[C@H]1C[N+]2(Cc3cc(-c4ccccc4)no3)CCC1CC2)(c1cccs1)N1CCSCC1` (single isomer, unassigned) [Example 55] the IC50 [1] was 2 to 10 nM.

Work on `CC(C(=O)O[C@H]1C[N+]2(CCc3ccccc3)CCC1CC2)(c1ccccc1)N1CCSCC1` (single isomer, unassigned) [Example 103] yielded an IC50 [1] of less than 2 nM.

`Cc1ccc(C(=O)C[N+]23CCC(CC2)[C@@H](OC(=O)[C@](C)(c2ccccc2)N2CCCCC2)C3)cc1` [Example 17, (3R)-1-[2-(4-Methylphenyl)-2-oxoethyl]-3-{[(2S)-2-phenyl-2-piperidin-1-ylpropanoyl]oxy}-1-azoniabicyclo[2.2.2]octane bromide] gave an IC50 [1] of less than 2 nM.

For `CC(C(=O)O[C@H]1C[N+]2(CC(=O)Nc3ccc(C(F)(F)F)cn3)CCC1CC2)(c1cccs1)N1CCCCC1` (stereo partly drawn) [Example 84, (3R)-1-(2-Oxo-2-{[5-(rifluoromethyl)pyridin-2-yl]amino}ethyl)-3-{[2-piperidin-1-yl-2-(2-thienyl)propanoyl]oxy}-1-azoniabicyclo[2.2.2]octane bromide], the IC50 [2] was 2 to 10 nM and < 2 nM.

`COc1cccc(C(=O)C[N+]23CCC(CC2)[C@@H](OC(=O)[C@](C)(c2ccccc2)N2CCCCC2)C3)c1` [Example 8, (3R)-1-[2-(3-Methoxyphenyl)-2-oxoethyl]-3-{[(2S)-2-phenyl-2-piperidin-1-ylpropanoyl]oxy}-1-azoniabicyclo[2.2.2]octane bromide] showed an IC50 [1] of less than 2 nM.

In the case of `Cn1c(=O)oc2cc(CC[N+]34CCC(CC3)[C@@H](OC(=O)[C@](C)(c3ccccc3)N3CCCCC3)C4)ccc21` [Example 25, (3R)-1-[2-(3-Methyl-2-oxo-2,3-dihydro-1,3-benzoxazol-6-yl)ethyl]-3-{[(2S)-2-phenyl-2-piperidin-1-ylpropanoyl]oxy}-1-azoniabicyclo(2.2.2]octane bromide], the IC50 [1] is reported as less than 2 nM.

Work on `CC(C(=O)O[C@H]1C[N+]2(CCCOc3ccccc3)CCC1CC2)(c1cccs1)N1CCSCC1` (single isomer, unassigned) [Example 49] yielded an IC50 [1] of less than 2 nM.

Work on `CC(C(=O)O[C@H]1C[N+]2(CC(=O)Nc3ccc(Cl)nn3)CCC1CC2)(c1cccs1)N1CCCCC1` (single isomer, unassigned) [Example 72] yielded an IC50 [1] of less than 2 nM.

`CC(C(=O)O[C@H]1C[N+]2(CCc3cccc(Cl)c3)CCC1CC2)(c1ccccc1)N1CCOCC1` (single isomer, unassigned) [Example 80] gave an IC50 [1] of 2 to 10 nM.

`CC(C(=O)O[C@H]1C[N+]2(CC(=O)Nc3cccc(F)c3)CCC1CC2)(c1ccccc1)N1CCSCC1` (single isomer, unassigned) [Example 100] showed an IC50 [1] of less than 2 nM.

Work on `CC(C(=O)O[C@H]1C[N+]2(CCCc3cccnc3)CCC1CC2)(c1ccccc1)N1CCCCCC1` (single isomer, unassigned) [Example 96] yielded an IC50 [1] of less than 2 nM.

With `CCOC(=O)Cc1csc(NC(=O)C[N+]23CCC(CC2)[C@@H](OC(=O)[C@](C)(c2ccccc2)N2CCCCC2)C3)n1` [Example 19, (3R)-1-(2-{[4-(2-Ethoxy-2-oxoethyl)-1,3-thiazol-2-yl]amino}-2-oxoethyl)-3-{[(2S)-2-phenyl-2-piperidin-1-ylpropanoyl]oxy}-1-azoniabicyclo[2.2.2]octane chloride] the IC50 [1] was 2 to 10 nM.

Work on `C[C@@](C(=O)O[C@H]1C[N+]2(CC(=O)c3cccc(F)c3)CCC1CC2)(c1ccccc1)N1CCCCC1` [Example 7, (3R)-1-[2-(3-Fluorophenyl)-2-oxoethyl]-3-{[(2S)-2-phenyl-2-piperidin-1-ylpropanoyl]oxy}-1-azoniabicyclo[2.2.2]octane bromide] yielded an IC50 [1] of less than 2 nM.

`C[C@@](C(=O)O[C@H]1C[N+]2(CC(=O)Nc3ccc(C#N)cc3)CCC1CC2)(c1ccccc1)N1CCCCC1` [Example 11, (3R)-1-{2-[(4-Cyanophenyl)amino]-2-oxoethyl}-3-{[(2S)-2-phenyl-2-piperidin-1-ylpropanoyl]oxy}-1-azoniabicyclo[2.2.2]octane chloride] gave an IC50 [1] of 2 to 10 nM.

With `CC1(C)CN(C(C)(C(=O)O[C@H]2C[N+]3(CCCOc4ccccc4)CCC2CC3)c2ccccc2)C1` (single isomer, unassigned) [Example 48] the IC50 [1] was 2 to 10 nM.

For `CC(C(=O)O[C@H]1C[N+]2(CCCc3ccccc3)CCC1CC2)(c1ccccc1)N1CCCCCC1` (single isomer, unassigned) [Example 95], the IC50 [2] was less than 2 nM.

`CC(C(=O)O[C@H]1C[N+]2(CCc3cccc(Cl)c3)CCC1CC2)(c1ccccc1)N1CCSCC1` (single isomer, unassigned) [Example 98] gave an IC50 [1] of less than 2 nM.

For `CC(C(=O)O[C@H]1C[N+]2(CCCc3ccccc3)CCC1CC2)(c1ccccc1)N1CCSCC1` (single isomer, unassigned) [Example 105], the IC50 [1] was 2 to 10 nM.

`CC(C(=O)O[C@H]1C[N+]2(Cc3nc4ccccc4s3)CCC1CC2)(c1cccs1)N1CCCCC1` (single isomer, unassigned) [Example 75] gave an IC50 [1] of less than 2 nM.

`C[C@@](C(=O)O[C@H]1C[N+]2(CC(=O)c3cccc(Cl)c3)CCC1CC2)(c1ccccc1)N1CCCCC1` [Example 6, (3R)-1-[2-(3-Chlorophenyl)-2-oxoethyl]-3-{[(2S)-2-phenyl-2-piperidin-1-ylpropanoyl]oxy}-1-azoniabicyclo[2.2.2]octane bromide] was tested, and the IC50 [1] was less than 2 nM.

`CC(C(=O)O[C@H]1C[N+]2(CC(=O)Nc3cccc(F)c3)CCC1CC2)(c1ccccc1)N1CCCCCC1` (single isomer, unassigned) [Example 88] gave an IC50 [1] of less than 2 nM.

`CC1(C)CN(C(C)(C(=O)O[C@H]2C[N+]3(CCCOc4ccccc4)CCC2CC3)c2ccc(Cl)cc2)C1` (single isomer, unassigned) [Example 46] was tested, and the IC50 [1] was greater than 10 nM.

`CC(C(=O)O[C@H]1C[N+]2(CCOCc3ccc(Cl)cc3)CCC1CC2)(c1ccccc1)N1CCSCC1` (single isomer, unassigned) [Example 108] showed an IC50 [1] of 2 to 10 nM.

`C[C@@](C(=O)O[C@H]1C[N+]2(CC(=O)Nc3ccc4[nH]ncc4c3)CCC1CC2)(c1ccccc1)N1CCCCC1` [Example 12, (3R)-1-[2-(1H-Indazol-5-ylamino)-2-oxoethyl]-3-{[(2S)-2-phenyl-2-piperidin-1-ylpropanoyl]oxy}-1-azoniabicyclo[2.2.2]octane chloride] showed an IC50 [1] of 2 to 10 nM.
